{
  "source": "patent US9987329B2",
  "about": "“Methods for treating peripheral nerve damage” (Cornell University, priority 2014, dated 2018)",
  "key": {"[1]": {"system": "trigeminal ganglion (TG) neuronal cells", "assay": "Inhibition of VEGF-B induced neurite growth in TG neurons", "format": "cell-based, mouse", "details": "3 days", "experimental": "(§1) Trigeminal ganglion (TG) neuronal cells were obtained and cultured as described previously. Pan, Z., Fukuoka et al., FASEB J. 27, 2756-2767 (2013). To evaluate the effect of VEGF-B on neuronal growth, TG neuronal cells were treated with 10-100 ng/ml recombinant mouse VEGF-B^186 (R&D 767-VE-010). The VEGF-B treatments were replenished every other day. Neurite formation and growth was followed up to 3 days. […] VEGF receptors were inhibited by using neutralizing antibodies against VEGFR1 (R&D AF471), VEGFR2 (R&D MAB4431) and Neuropilin 1 (NRP1) (R&D MAB566). TG cells were incubated in a dose dependent manner with anti-VEGFR1, anti-VEGFR2 or anti-NRP1 for 1 hour prior to the addition of 50 ng/ml VEGF-B. The tyrosine kinase domains of VEGFR2 were inhibited with specific inhibitors by incubating TG neuronal cells with 10 μM SU 1498 (Sigma T4192) or 5 nM Ki 8751 (Sigma K1265) for 1 hr before adding 50 ng/ml VEGF-B. All neurite growth was imaged with an AxioObserver Z1 fluorescence microscope in the YFP channel attached to an AxioCam HRm digital camera (Zeiss) operated by AxioVision 4.0 software. Images were analyzed using Neurolucida 9 (MBF Bioscience) a quantitative nerve tracing software."}, "[2]": {"system": "Human corneal limbal epithelial (HCLE) cells", "assay": "In vitro scratch wound assay", "format": "cell-based", "details": "10 ng/ml", "experimental": "Human corneal limbal epithelial (HCLE) cells were cultured in 6-well plates until confluency as described. Pan, Z., Fukuoka et al., FASEB J. 27, 2756-2767 (2013). Cells were starved in KSFM medium (gibco 10724-011) without supplements for 24 h. Then a straight-line scratch mark was made in each well with a 200 ul pipette tip. KSFM medium supplemented with VEGF-B^186 (50 ng/ml) or EGF (10 ng/ml, Millipore 01-101) was added to the wells. Scratch areas were imaged at 0, 8, 24 and 48 hours at the same locations using the mark and find module of the Axiovision software and the wound closure analyzed by Photoshop."}, "[3]": {"system": "trigeminal ganglion (TG) neuronal cells", "assay": "Trigeminal ganglion neuronal growth assay", "format": "cell-based, mouse", "details": "50 ng/ml, three days in culture (FIG. 2A)", "experimental": "as §1"}, "[4]": {"system": "corneal nerves of Thy-1-YFP mice", "assay": "Corneal nerve regeneration with combinations of VEGF-A and VEGF-B", "format": "in vivo, mouse", "details": "ligand administered separately, two weeks post-injury (FIG. 14)", "experimental": "Thy-1-YFP mice were subjected to cornea epithelium debridement to ablate the superficial nerve endings that innervate the cornea Immediately after injury, the mice were treated with different combinations of VEGF-A and VEGF-B. As shown, combinations of VEGF ligands induce greater nerve regeneration in vivo.\nThe observed effects were also recapitulated in vivo. Thy-1-YFP neurofluorescent mice were used to induce a corneal epithelium injury that results in ablation of the superficial nerve endings of the cornea. The mice were then treated with different combinations of VEGF-A and VEGF-B, and nerve regeneration was analyzed after two weeks post-injury."}},
  "data": [
    {"molecule": "CC(C)c1cc(/C=C(\\C#N)C(=O)NCCCc2ccccc2)cc(C(C)C)c1O", "note": "[SU 1498]", "values": [
      {"measurement": "inhibition of VEGF-B induced neurite growth", "setting": "[1]; 10 μM, 1 hr before 50 ng/ml VEGF-B", "result": "does not block"}
    ]},
    {"molecule": "EGF: epidermal growth factor (Millipore 01-101), a known inducer of epithelial cell proliferation", "values": [
      {"measurement": "time of complete confluence of the scratch area", "setting": "[2]", "result": 24, "unit": "h"},
      {"measurement": "time to complete closure of the scratch area", "setting": "[2]", "result": "< 24", "unit": "h"},
      {"measurement": "onset of cell growth into the scratch area", "setting": "[2]; post-treatment", "result": 8, "unit": "h"}
    ]},
    {"molecule": "COc1cc2nccc(Oc3ccc(NC(=O)Nc4ccc(F)cc4F)c(F)c3)c2cc1OC", "note": "[Ki 8751]", "values": [
      {"measurement": "inhibition of VEGF-B induced neurite growth", "setting": "[1]; 5 nM, 1 hr before 50 ng/ml VEGF-B", "result": "does not block"}
    ]},
    {"molecule": "soluble VEGFR1: recombinant human-soluble VEGFR1 (sVEGFR1/sFlt1, CellSciences CRF103) (protein) SKLKDPELSLKGTQHIMQAGQTLHLQCRGEAAHKWSLPEMVSKESERLSITKSACGRNGKQFCSTLTLNTAQANHTGFYSCKYLAVPTSKKKETESAIYIFISDTGRPFVEMYSEIPEIIHMTEGRELVIPCRVTSPNITVTLKKFPLDTLIPDGKRIIWDSRKGFIISNATYKEIGLLTCEATVNGHLYKTNYLTHRQTNTIIDVQISTPRPVKLLRGHTLVLNCTATTPLNTRVQMTWSYPDEKNKRASVRRRIDQSNSHANIFYSVLTIDKMQNKDKGLYTCRVRSGPSFKSVNTSVHIYDKAFITVKHRKQQVLETVAGKRSYRLSMKVKAFPSPEVVWLKDGLPATEKSARYLTRGYSLIIKDVTEEDAGNYTILLSIKQSNVFKNLTATLIVNVKPQIYEKAVSSFPDPALYPLGSRQILTCTAYGIPQPTIKWFWHPCNHNHSEARCDFCSNNEESFILDADSNMGNRIESITQRMAIIEGKNKMASTLVVADSRISGIYICIASNKVGTVGRNISFYITDVPNGFHVNLEKMPTEGEDLKLSCTVNKFLYRDVTWILLRTVNNRTMHYSISKQKMAITKEHSITLNLTIMNVSLQDSGTYACRARNVYTGEEILQKKEITIRGEHCNKKAVFSRISKFKSTRNDCTTQSNVKH", "values": [
      {"measurement": "inhibition of VEGF-B induced neurite growth", "setting": "[1]; equal molar concentration (2.6 nM) with 50 ng/ml VEGF-B", "result": "inhibited"}
    ]},
    {"molecule": "VEGF-A: vascular endothelial growth factor A; 232 amino acid protein, NextProt NX_P15692, SEQ ID NO. 2 (protein, listed as Homo sapiens) MNFLLSWVHWSLALLLYLHVKFMDVYQRSYCHPIETLVDIFQEYPDEIEYIFKPSCVPLMRCGGCCNDEGLECVPTEESNITMQIMRIKPHQGQHIGEMSFLQHNKCECRPKKDRARQEKKSVRGKGKGQKRKRKKSRYKSWSVYVGARCCLMPWSLPGPHPCGPCSERRKHLFVQDPQTCKCSCKNTDSRCKARQLELNERTCRCDKPRRHAKWSQAAPMAEGGGQNHHEV", "values": [
      {"measurement": "pattern of neurite growth (elongation and branching)", "setting": "[3]", "result": "mainly neurite elongation with few branching nodes"},
      {"measurement": "nerve regeneration", "setting": "[4]", "result": "induced greater nerve regeneration"}
    ]}
  ]
}
